Values after ≈ are worked out from the molar mass of the structure shown.
Assays:
[1] = parameters: method as in PMID 29401704; details: compound 5 μM; cited from earlier work
[2] = parameters: method as in PMID 15246878; details: read-out: IC50, inhibition of the superoxide-driven reduction of NBT by 50%; flavonoid:metal ion ratio 1:1 for complexes; cited from earlier work
[3] = system: Staphylococcus aureus; parameters: method as in doi:10.15199/62.2017.11.9, PMID 26528244, PMID 24228999; details: cited from earlier work
[4] = system: Candida albicans; parameters: method as in doi:10.15199/62.2017.11.9, PMID 25209896; details: cited from earlier work
[5] = system: Stenotrophomonas maltophilia; parameters: method as in doi:10.15199/62.2017.11.9, PMID 25209896; details: cited from earlier work
[6] = cited from earlier work
[7] = MTS cell viability assay; format: cell-based; details: human, HaCaT keratinocyte cells, 1000 nM
[8] = radical assay not named at the place (ABTS•+/DPPH• scavenging discussed); read-out: EC50 (antioxidant); cited from earlier work

O=C(C=Cc1ccc(O)c(O)c1)OC1CC(O)(C(=O)[O-])CC(O)C1O.[Li+] (stereo not shown) [CQA/Li]
FRAP activity [1]: 106.92 µM Fe^2+

C[C@@H]1O[C@@H](OC[C@H]2O[C@@H](Oc3c(-c4ccc(O)c(O)c4)oc4cc(O)cc(O)c4c3=O)[C@H](O)[C@@H](O)[C@@H]2O)[C@H](O)[C@H](O)[C@H]1O [rutin]
IC50 [2]: 9 µM

O=C(/C=C/c1ccc(O)c(O)c1)O[C@@H]1C[C@](O)(C(=O)O)C[C@@H](O)[C@H]1O [5-CQA, 5-caffeoylquinic acid]
MIC [3]: 500 µg/mL (≈ 1410 µM) | MIC [4]: 80 µg/mL (≈ 226 µM) | activity against Stenotrophomonas maltophilia [5]: shows activity | pKa1 (COOH) [6]: 3.35 | pKa2 [6]: 8.30 | pKa3 (OH in the meta position) [6]: 12.06 | viability at 24 h, 1 µM [7]: 101 ± 4.5%

O=C1O[C@H]([C@@H](O)CO)C(O)=C1O [L-ascorbic acid]
EC50 [8]: 10.3 ± 0.98 µM

From PMC9572621, “Fe(III) and Cu(II) Complexes of Chlorogenic Acid: Spectroscopic, Thermal, Anti-/Pro-Oxidant, and Cytotoxic Studies” (Materials, 2022)
